Measurements: patent US20220257491A1, “Prebiotic Oral Care Compositions and Methods” (Colgate-Palmolive Company, priority 2021, published 2022)
Marks after values point to notes of the source that are not given here.

Assays:
Type in all cases: cell-based
A. actinomycetemcomitans = assay: Multi-species biofilm composition: absolute abundance of A. actinomycetemcomitans; details: mean±SD n=3
Method: (§1) Biofilms are grown vertically on Calcium Deficient Hydroxyapatite (CAD-HA) disks (Hitemco Medical, Old Bethpage, USA) using the Amsterdam Active Adhesion model. Biofilms are allowed to establish during 24 h (37° C., 170 rpm) under micro-aerophilic conditions (6% O2, 7% CO2, 7% H2, 80% N2). After this 24 h, disks are rinsed 3 times a day for 3 minutes (RT, 250 rpm), for 3 consecutive days, by transferring the lid containing the disks to a new 24-well plate containing 2 mL/well of the appropriate substrate solution. As a negative control, PBS (pH 5.7) without substrate supplementation is used. After each rinsing step, disks are shortly dip-rinsed in a new 24-well plate containing fresh modified BHI medium (2 mL/well) to remove remaining substrate traces. Subsequently, the lid is transferred to another 24-well plate containing fresh modified BHI medium (2 mL/well), followed by incubation (micro-aerophilic, 37° C., 170 rpm) until the next rinsing step.
(§2) NADM, N-acetyl-D-glucosamine (“NADG”) and D-(+)-mannose are selected to determine their effects on multi-species biofilm composition. […] decrease in absolute numbers in at least four of the pathogenic bacterial species tested in the assay, compared to the control, the results of which are described in Table 1 below. Absolute abundances of bacterial species are shown as mean±SD (n=3) logarithmic values of the genome equivalents per millilitre (log(Geq/mL)).

P. gingivalis = assay: Multi-species biofilm composition: absolute abundance of P. gingivalis; details: mean±SD n=3
Method: as §1, §2

S. mutans = assay: Multi-species biofilm composition: absolute abundance of S. mutans; details: mean±SD n=3
Method: as §1
(§3) NADM, N-acetyl-D-glucosamine (“NADG”) and D-(+)-mannose are selected to determine their effects on multi-species biofilm composition. Repeated rinsing of the biofilms with the substrates at a concentration of 1M results in a significant decrease in absolute numbers in at least four of the pathogenic bacterial species tested in the assay, compared to the control, the results of which are described in Table 1 below. Absolute abundances of bacterial species are shown as mean±SD (n=3) logarithmic values of the genome equivalents per millilitre (log(Geq/mL)).

S. sobrinus = assay: Multi-species biofilm composition: absolute abundance of S. sobrinus; details: mean±SD n=3
Method: as §1, §2

A. naeslundii = assay: Multi-species biofilm composition: absolute abundance of A. naeslundii; details: mean±SD n=3
Method: as §1, §3

S. gordonii = assay: Multi-species biofilm composition: absolute abundance of S. gordonii; details: mean±SD n=3
Method: as §1, §3

S. oralis = assay: Multi-species biofilm composition: absolute abundance of S. oralis; details: for Absolute abundance S. oralis: mean±SD n=3
Method: as §1, §2

V. parvula = assay: Multi-species biofilm composition: absolute abundance of V. parvula; details: mean±SD n=3
Method: as §1, §3

[1] = test system: A. actinomycetemcomitans virulence genes; assay: Multi-species biofilm virulence gene expression, SYBR RT-qPCR: A. actinomycetemcomitans; details: for Fold Change in virulence gene expression: aae / Fold Change in virulence gene expression: apaH / Fold Change in virulence gene expression: cdtB / Fold Change in virulence gene expression: emaA / Fold Change in virulence gene expression: flp / Fold Change in virulence gene expression: ltxA / Fold Change in virulence gene expression: omp29 / Fold Change in virulence gene expression: omp100 / Fold Change in virulence gene expression: orf859 / Fold Change in virulence gene expression: pgA / Fold Change in virulence gene expression: vapA / Fold Change in virulence gene expression: vppA: relative to control (=1), 2^-ΔΔCt, geometric mean n=3
Method: as §1
The expression of 33 virulence genes from 4 periodontal pathogens is analysed to evaluate the relative virulence of the substrate-treated biofilms. For all three substrates, virulence gene expression is determined relatively to the control, and these values are also compared between substrates when this is relevant (Tables 5a-5d).

[2] = test system: human oral keratinocytes (HOK-18A); assay: Inflammatory mediator gene expression in keratinocytes exposed to substrate-treated biofilms; details: relative to control (=1), geometric mean (95% C.I.) n=3
Method: (§4) Cultures of immortalized human oral keratinocytes (HOK-18A) are grown. The relative inflammatory potential of the substrate-treated multi-species biofilms is evaluated by analyzing the expression of five inflammatory mediator genes in human oral keratinocytes (HOKs) exposed to the substrate-treated biofilms. […] The IL-8 levels in the cellular supernatant are determined as well. RNA is converted to cDNA and relative expression of inflammatory mediator genes is determined as described above with respect to the cellular housekeeping gene (3-actin.
In HOKs exposed to substrate-treated (substrate concentrations of 1 M) multi-species biofilms, mostly decreases in inflammatory mediator gene expression are observed and measured via SYBR RT-qPCR, the results of which are detailed in Table 6.
(§5) All substrates are dissolved in PBS at a concentration of 1 M (upper part) or 1% (w/v) (lower part). Values between 0 and 1 represent relative downregulation, values >1 represent relative upregulation. […] For such values, statistically significant differences between two experimental conditions are marked with ‘#1’ (vs. NADM), ‘#2’ (vs. NADG), ‘#3’ (vs. D-(+)-mannose) (P<0.05).

[3] = test system: human oral keratinocytes (HOK-18A); assay: IL-8 levels in supernatants of keratinocyte cultures exposed to substrate-treated biofilms; details: mean±SD n=3
Method: as §4
as §5, with “Table 7: IL-8 levels detected in the supernatants of human oral keratinocytes (HOK-18A) cultures exposed to substrate-treated multi-species biofilms are shown as mean±SD (n=3) values (pg/mL). All” for “All”

[4] = biofilm rinsed with substrate 1%
[5] = biofilm rinsed with substrate 1M

CC(=O)N[C@H]1C(O)O[C@H](CO)[C@@H](O)[C@@H]1O (stereo partly drawn) [NADG, N-acetyl-D-glucosamine, reference compound]
Absolute abundance Aa (A. actinomycetemcomitans) (A. actinomycetemcomitans; substrate 1%(w/v) in PBS): 9.11 ± 0.20 log(Geq/mL) | Absolute abundance Aa (A. actinomycetemcomitans) (A. actinomycetemcomitans; substrate 1 M in PBS): 6.6 ± 0.93 log(Geq/mL) | Absolute abundance Pg (P. gingivalis) (P. gingivalis; substrate 1%(w/v) in PBS): 7.14 ± 0.28 log(Geq/mL) | Absolute abundance Pg (P. gingivalis) (P. gingivalis; substrate 1 M in PBS): 4.00 ± 0.39*^, ^#3 log(Geq/mL) | Absolute abundance S. mutans (S. mutans; substrate 1%(w/v) in PBS): 7.83 ± 0.23 log(Geq/mL) | Absolute abundance S. mutans (S. mutans; substrate 1 M in PBS): 8.95 ± 0.38 log(Geq/mL) | Absolute abundance S. sobrinus (S. sobrinus; substrate 1%(w/v) in PBS): 4.87 ± 0.22 log(Geq/mL) | Absolute abundance S. sobrinus (S. sobrinus; substrate 1 M in PBS): 4.16 ± 0.44 log(Geq/mL) | Absolute abundance An (A. naeslundii) (A. naeslundii; substrate 1%(w/v) in PBS): 7.71 ± 0.12 log(Geq/mL) | Absolute abundance An (A. naeslundii) (A. naeslundii; substrate 1 M in PBS): 6.52 ± 0.20 log(Geq/mL) | Absolute abundance S. gord. (S. gordonii) (S. gordonii; substrate 1%(w/v) in PBS): 8.33 ± 0.06 log(Geq/mL) | Absolute abundance S. gord. (S. gordonii) (S. gordonii; substrate 1 M in PBS): 9.38 ± 0.40 log(Geq/mL) | Absolute abundance S. oralis (S. oralis; substrate 1%(w/v) in PBS): 7.11 ± 0.14 log(Geq/mL) | Change in S. oralis numbers compared to the control (S. oralis; substrate 1 M): +1.0 log(Geq/mL) | Absolute abundance S. oralis (S. oralis; substrate 1 M in PBS): 7.97 ± 0.31*^, #1 log(Geq/mL) | Absolute abundance Vp (V. parvula) (V. parvula; substrate 1%(w/v) in PBS): 9.77 ± 0.19 log(Geq/mL) | Absolute abundance Vp (V. parvula) (V. parvula; substrate 1 M in PBS): 10.57 ± 0.24 log(Geq/mL) | Fold Change in virulence gene expression: aae ([1]; substrate 1% (w/v)): 1.55 fold | Fold Change in virulence gene expression: apaH ([1]; substrate 1% (w/v)): 0.73 fold | Fold Change in virulence gene expression: cdtB ([1]; substrate 1% (w/v)): 1.05 fold | Fold Change in virulence gene expression: emaA ([1]; substrate 1% (w/v)): 0.68 fold | Fold Change in virulence gene expression: flp ([1]; substrate 1% (w/v)): 0.54 fold | Fold Change in virulence gene expression: ltxA ([1]; substrate 1% (w/v)): 0.40 fold | Fold Change in virulence gene expression: omp29 ([1]; substrate 1% (w/v)): 0.77 fold | Fold Change in virulence gene expression: omp100 ([1]; substrate 1% (w/v)): 0.71 fold | Fold Change in virulence gene expression: orf859 ([1]; substrate 1% (w/v)): 1.99 fold | Fold Change in virulence gene expression: pgA ([1]; substrate 1% (w/v)): 0.72 fold | Fold Change in virulence gene expression: vapA ([1]; substrate 1% (w/v)): 0.65 fold | Fold Change in virulence gene expression: vppA ([1]; substrate 1% (w/v)): 0.28 fold | A. actinomycetemcomitans gene expression decrease: vppA ([1]; substrate 1%(w/v)): 3.6 fold | A. actinomycetemcomitans gene expression increase: aae ([1]; substrate 1%(w/v)): 1.5 fold | A. actinomycetemcomitans gene expression increase: orf859 ([1]; substrate 1%(w/v)): 2 fold | Upregulation of A. actinomycetemcomitans expression of flp ([1]; substrate 1 M): 2.4 fold | Fold Change in virulence gene expression: aae ([1]; substrate 1M): 0.24 fold | Fold Change in virulence gene expression: apaH ([1]; substrate 1M): 0.08 fold | Fold Change in virulence gene expression: cdtB ([1]; substrate 1M): 0.04 fold | Fold Change in virulence gene expression: emaA ([1]; substrate 1M): 0.29 fold | Fold Change in virulence gene expression: flp ([1]; substrate 1M): 2.40 fold | Fold Change in virulence gene expression: ltxA ([1]; substrate 1M): 0.01 fold | Fold Change in virulence gene expression: omp29 ([1]; substrate 1M): 0.19 fold | Fold Change in virulence gene expression: omp100 ([1]; substrate 1M): 0.03 fold | Fold Change in virulence gene expression: orf859 ([1]; substrate 1M): 0.13 fold | Fold Change in virulence gene expression: pgA ([1]; substrate 1M): 11.60 fold | Fold Change in virulence gene expression: vapA ([1]; substrate 1M): 1.00 fold | Fold Change in virulence gene expression: vppA ([1]; substrate 1M): 0.49 fold | Fold change in inflammatory mediator gene expression: IL-1β [2, 4]: 0.71 (0.38-1.33) fold | Fold change in inflammatory mediator gene expression: IL-6 [2, 4]: 0.73 (0.58-0.93) fold | Fold change in inflammatory mediator gene expression: IL-8 [2, 4]: 1.00 (0.78-1.27) fold | Fold change in inflammatory mediator gene expression: MMP-8 [2, 4]: 0.52 (0.17-1.60) fold | Fold change in inflammatory mediator gene expression: TNF-α [2, 4]: 0.71 (0.28-1.35) fold | Fold change in inflammatory mediator gene expression: IL-1β [2, 5]: 0.75 (0.55-1.02) fold | Fold change in inflammatory mediator gene expression: IL-6 [2, 5]: 0.57 (0.46-0.71) fold | Fold change in inflammatory mediator gene expression: IL-8 [2, 5]: 0.14 (0.06-0.36)* fold | Fold change in inflammatory mediator gene expression: MMP-8 [2, 5]: 1.28 (0.79-2.08) fold | Fold change in inflammatory mediator gene expression: TNF-α [2, 5]: 0.89 (0.59-1.34) fold | IL-8 levels in supernatants of HOK-18A cultures ([3]; biofilm rinsed with substrate 1%(w/v)): 54.75 ± 11.66 pg/mL | IL-8 levels in supernatants of HOK-18A cultures [3, 5]: 0.22 ± 0.32 pg/mL
